Measured values taken from patent US20140039044A1, “Hydroxylated Polymethoxyflavone Compositions” (WLLGEN, INC., priority 2006, published 2014).

Tests used:
Assay type in all cases: cell-based, human
HT-29 cells [1] = assay: Cell cycle distribution by flow cytometry; details: 24 h
How it was run: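 Cells were treated 24 h with compound at 5, 10, 25, 50 or 100 μM, or with DMSO. They were then ethanol-fixed, RNase-treated and stained with propidium iodide. DNA content was measured by FACScan flow cytometry to give cell-cycle phase distribution.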

HL-60 cells = assay: Cell cycle distribution by flow cytometry; details: 24 h, Table 10
How it was run: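 HL-60 cells were treated for 24 h with compound at 5, 10, 25, 50 or 100 μM, or with DMSO. Cells were then ethanol-fixed, treated with Triton X-100/RNase and stained with propidium iodide. DNA content was measured by flow cytometry to give cell-cycle phase distribution.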

COLO205 cells = assay: Cell cycle distribution by flow cytometry; details: COLO205 cells, 24 h, Table 12
How it was run: (§1)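 Human cancer cells (2×10^5 per dish) exposed 24 h to compound at 5–100 μM, or DMSO. Cells ethanol-fixed at −20° C overnight, RNase/Triton-treated at 37° C for 30 min, then stained with propidium iodide. DNA content read by FACScan flow cytometry to give phase distribution.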

AGS cells = assay: Cell cycle distribution by flow cytometry; details: 24 h, Table 11
How it was run: as §1

HT-29 cells [2] = assay: Apoptotic ratio by propidium iodide flow cytometry (AC50); details: Homo sapiens, read-out: Apoptosis-inducing AC50
How it was run: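 HT-29 cells (2×10^5) were treated with compound for 24 h, then fixed in ice-cold ethanol overnight and treated with Triton X-100/RNase at 37 °C for 30 min. They were stained with propidium iodide (50 μg/mL solution) on ice for 30 min. The apoptotic fraction was measured from PI-DNA fluorescence by flow cytometry, and AC50 was reported.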

COc1cc(-c2cc(=O)c3c(O)c(OC)c(OC)c(OC)c3o2)cc(OC)c1OC [E, 5-hydroxy-6,7,8,3′,4′,5′-hexamethoxyflavone]
Cell Cycle Distribution G0/G1 (HT-29 cells [1]; 5 μM): 57.96 ± 0.21 | Cell Cycle Distribution G2/M (HT-29 cells [1]; 5 μM): 10.19 ± 0.07 | Cell Cycle Distribution S (HT-29 cells [1]; 5 μM): 31.85 ± 0.14 | Cell Cycle Distribution G0/G1 (HT-29 cells [1]; 10 μM): 57.86 ± 0.31 | Cell Cycle Distribution G2/M (HT-29 cells [1]; 10 μM): 10.01 ± 0.46 | Cell Cycle Distribution S (HT-29 cells [1]; 10 μM): 32.14 ± 0.78 | Cell Cycle Distribution G0/G1 (HT-29 cells [1]; 25 μM): 59.20 ± 0.06 | Cell Cycle Distribution G2/M (HT-29 cells [1]; 25 μM): 9.63 ± 0.69 | Cell Cycle Distribution S (HT-29 cells [1]; 25 μM): 31.18 ± 0.74 | Cell Cycle Distribution G0/G1 (HT-29 cells [1]; 50 μM): 58.95 ± 0.95 | Cell Cycle Distribution G2/M (HT-29 cells [1]; 50 μM): 9.26 ± 0.16 | Cell Cycle Distribution S (HT-29 cells [1]; 50 μM): 31.79 ± 1.12 | Cell Cycle Distribution G0/G1 (HT-29 cells [1]; 100 μM): 61.79 ± 1.47 | Cell Cycle Distribution G2/M (HT-29 cells [1]; 100 μM): 8.79 ± 1.23 | Cell Cycle Distribution S (HT-29 cells [1]; 100 μM): 29.42 ± 0.24 | Cell Cycle Distribution G0/G1 (HL-60 cells; 5 μM): 40.16 ± 1.10 | Cell Cycle Distribution G2/M (HL-60 cells; 5 μM): 6.01 ± 1.64 | Cell Cycle Distribution S (HL-60 cells; 5 μM): 53.83 ± 0.54 | Cell Cycle Distribution G0/G1 (HL-60 cells; 10 μM): 40.43 ± 2.14 | Cell Cycle Distribution G2/M (HL-60 cells; 10 μM): 5.57 ± 1.17 | Cell Cycle Distribution S (HL-60 cells; 10 μM): 54.01 ± 0.98 | Cell Cycle Distribution G0/G1 (HL-60 cells; 25 μM): 41.35 ± 2.50 | Cell Cycle Distribution G2/M (HL-60 cells; 25 μM): 6.27 ± 1.05 | Cell Cycle Distribution S (HL-60 cells; 25 μM): 52.38 ± 1.46 | Cell Cycle Distribution G0/G1 (HL-60 cells; 50 μM): 37.64 ± 1.09 | Cell Cycle Distribution G2/M (HL-60 cells; 50 μM): 7.73 ± 0.62 | Cell Cycle Distribution S (HL-60 cells; 50 μM): 54.64 ± 0.49 | Cell Cycle Distribution G0/G1 (HL-60 cells; 100 μM): 42.95 ± 0.11 | Cell Cycle Distribution G2/M (HL-60 cells; 100 μM): 7.27 ± 0.84 | Cell Cycle Distribution S (HL-60 cells; 100 μM): 49.79 ± 0.95 | Cell Cycle Distribution G0/G1 (COLO205 cells; 5 μM): 67.66 ± 0.19 | Cell Cycle Distribution G2/M (COLO205 cells; 5 μM): 8.75 ± 0.17 | Cell Cycle Distribution S (COLO205 cells; 5 μM): 23.60 ± 0.03 | Cell Cycle Distribution G0/G1 (COLO205 cells; 10 μM): 67.48 ± 0.59 | Cell Cycle Distribution G2/M (COLO205 cells; 10 μM): 8.29 ± 0.48 | Cell Cycle Distribution S (COLO205 cells; 10 μM): 24.24 ± 0.11 | Cell Cycle Distribution G0/G1 (COLO205 cells; 25 μM): 67.40 ± 0.49 | Cell Cycle Distribution G2/M (COLO205 cells; 25 μM): 7.59 ± 1.18 | Cell Cycle Distribution S (COLO205 cells; 25 μM): 25.02 ± 0.70 | Cell Cycle Distribution G0/G1 (COLO205 cells; 50 μM): 69.49 ± 2.62 | Cell Cycle Distribution G2/M (COLO205 cells; 50 μM): 6.59 ± 0.82 | Cell Cycle Distribution S (COLO205 cells; 50 μM): 23.93 ± 1.80 | Cell Cycle Distribution G0/G1 (COLO205 cells; 100 μM): 69.99 ± 0.89 | Cell Cycle Distribution G2/M (COLO205 cells; 100 μM): 5.52 ± 0.90 | Cell Cycle Distribution S (COLO205 cells; 100 μM): 24.50 ± 0.00 | Cell Cycle Distribution G0/G1 (AGS cells; 5 μM): 55.70 ± 0.14 | Cell Cycle Distribution G2/M (AGS cells; 5 μM): 15.88 ± 0.89 | Cell Cycle Distribution S (AGS cells; 5 μM): 28.42 ± 0.75 | Cell Cycle Distribution G0/G1 (AGS cells; 10 μM): 56.96 ± 3.14 | Cell Cycle Distribution G2/M (AGS cells; 10 μM): 16.00 ± 0.55 | Cell Cycle Distribution S (AGS cells; 10 μM): 27.05 ± 2.60 | Cell Cycle Distribution G0/G1 (AGS cells; 25 μM): 56.32 ± 2.62 | Cell Cycle Distribution G2/M (AGS cells; 25 μM): 14.40 ± 2.38 | Cell Cycle Distribution S (AGS cells; 25 μM): 29.25 ± 0.18 | Cell Cycle Distribution G0/G1 (AGS cells; 50 μM): 54.53 ± 0.30 | Cell Cycle Distribution G2/M (AGS cells; 50 μM): 15.69 ± 1.41 | Cell Cycle Distribution S (AGS cells; 50 μM): 29.79 ± 1.10 | Cell Cycle Distribution G0/G1 (AGS cells; 100 μM): 55.68 ± 0.46 | Cell Cycle Distribution G2/M (AGS cells; 100 μM): 13.51 ± 0.17 | Cell Cycle Distribution S (AGS cells; 100 μM): 30.82 ± 0.29 | AC50 (HT-29 cells [2]): > 100 µM
